The test system of assay [1] is advanced glycation end-product (AGE) formation in BSA/glucose system. The experiment in a line: Inhibition of AGE formation in BSA-glucose system (fluorescence). The format is biochemical, bovine. On the procedure: Inhibition of AGE formation in BSA-glucose system was determined using the spectrophotometric method described previously. All test samples were dissolved in 10% DMSO. […] This mixture was incubated at 60 °C for 2 days. […] We used AG as a positive control. Three replicate samples were run for each set. The inhibitory activity on AGE formation was calculated using the following formula: {(Ac − As)/Ac} × 100, where Ac is fluorescence of the control, and As is the fluorescence of the sample.

Assay [2] concerns advanced glycation end-product (AGE) formation in BSA/MGO system. The experiment in a line: Inhibition of AGE formation in BSA-MGO system (fluorescence). The format is biochemical, bovine. As to conditions: BSA 1 mg/mL, 7 mM MGO, 60 °C, 2 days, mean ± SD, n = 3; for IC50: isolated compounds. On the procedure: The inhibitory effect on protein glycation induced by MGO (40% aqueous solution) and the main reactive intermediate compound formed in Maillard reaction were evaluated. All test samples were dissolved in 10% DMSO. […] This mixture was incubated at 60 °C for 2 days. […] We used AG as a positive control. Three replicate samples were run for each set. The inhibitory activity was calculated using the same equation applied in BSA-glucose assay.

Assay [3] deals with T1, α-glucosidase from Saccharomyces cerevisiae (Saccharomyces cerevisiae, UniProt P53341).
T1 construct: purchased Sigma-Aldrich Chemical Company (St. Louis, MO, USA)
The experiment in a line: biochemical. The format is biochemical. On the procedure: Methanol (MeOH), ethanol (EtOH), Hx, DCM, EA, BuOH, and distilled water were used for extraction, fractionation, and open column chromatography. Sephadex LH-20 (25–100 μm; Pharmacia, Stockolm, Sweden), MCI CHP 20P (Supelco, St. Louis, MO, USA), and ODS gel (400–500 mesh; Waters, Milford, MA, USA) were used for open column chromatography. Dimethyl sulfoxide-d6 (DMSO-d6) and methanol-d4 (CD3OD) were used as solvents for NMR analysis. Molecular weight was determined by using ultrahigh performance liquid chromatography and high-resolution mass spectrometry (UHPLC-HRMS) coupled with electrospray ionization hybrid linear trap-quadruple-Orbitrap MS (ESI/LTQ-Orbitrap) using an Ultimate 3000 RSLC (Thermo, Darmstadt, Germany). ^1H-nuclear magnetic resonance (NMR) spectra were recorded at 600 MHz and ^13C-NMR spectra were recorded at 150 MHz on a JEOL spectrometer. The chemical shifts are expressed in parts per million (ppm) on the δ scale and as coupling constants (J) in Hertz. […] A Waters Kromasil C18 (4.6 × 250 mm, 5 μm) column was used as the separation column. HPLC-grade solvents, such as MeOH and distilled water (H2O), were purchased from J. T. Baker® (Phillipsburg, PA, USA). HPLC-grade phosphoric acid was obtained from DEAJUNG Chemical (Siheung, Gyeonggi, Korea).
This assay was performed using a 96-well microplate reader and a spectrophotometer. […] A chromogenic substance was used for quantification purposes. After the addition of mixture solution to each well, 10 mM phosphate buffer (20 µL, pH 6.8) containing 0.2 U/mL α-glucosidase was added. This mixture was incubated at 37 °C for 15 min. The reaction was stopped by adding 80 µL of 0.2 mol/L sodium carbonate solution. […] Three replicate samples were run for each set. The inhibitory activity was calculated using the equation applied in BSA-glucose assay, but absorbance was measured instead of fluorescence.

[4] abbreviates: isolated compounds, BSA 10 mg/mL, 0.4 M D-fructose and D-glucose, 60 °C, 2 days, mean ± SD, n = 3, read-out: IC50 BSA/Glucose (AGE formation).
[5] abbreviates: isolated compounds, read-out: IC50 α-glucosidase activity.
Where [6] appears, read: isolated compounds, 2.5 mM p-NPG, pH 6.8, 37 °C, 15 min, mean ± SD, n = 3.
Setting [7] is: isolated compounds, 2.5 mM p-NPG, pH 6.8, 37 °C, 15 min, mean ± SD, n = 3, read-out: IC50 α-Glucosidase.

≈ marks a conversion by molar mass, not a printed value. Like-named read-outs stand apart in the source and are kept apart here.

T1 sequence (P53341 whole entry): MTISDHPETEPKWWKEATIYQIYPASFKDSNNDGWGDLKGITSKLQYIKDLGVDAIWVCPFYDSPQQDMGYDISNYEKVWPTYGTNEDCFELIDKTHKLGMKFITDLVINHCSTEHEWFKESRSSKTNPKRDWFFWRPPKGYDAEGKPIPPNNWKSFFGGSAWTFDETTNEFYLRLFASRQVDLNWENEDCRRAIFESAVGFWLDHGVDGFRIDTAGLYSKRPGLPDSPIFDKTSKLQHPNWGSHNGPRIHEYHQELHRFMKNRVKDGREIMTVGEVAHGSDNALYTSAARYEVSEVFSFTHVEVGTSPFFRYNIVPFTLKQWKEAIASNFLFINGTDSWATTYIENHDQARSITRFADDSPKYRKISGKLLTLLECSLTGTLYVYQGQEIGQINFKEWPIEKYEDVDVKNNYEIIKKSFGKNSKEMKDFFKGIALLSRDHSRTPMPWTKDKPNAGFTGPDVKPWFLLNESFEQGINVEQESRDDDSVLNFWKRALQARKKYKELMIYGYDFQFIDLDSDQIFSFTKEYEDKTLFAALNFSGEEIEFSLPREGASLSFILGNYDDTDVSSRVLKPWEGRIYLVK

As to `N=C(N)NN` [AMG, aminoguanidine, reference compound], the “IC50 BSA/Glucose (AGE formation)” value in assay [1] (extracts and fractions, BSA 10 mg/mL, 0.4 M D-fructose and D-glucose, 60 °C, 2 days, mean ± SD, n = 3) turned out to be 218.57 ± 24.38 µg/mL (≈ 2950 µM). The IC50 stood at 602 ± 50.4 µM in assay [1] (setting [4]) and 295 ± 42.7 µM in assay [2]. The “IC50 BSA/MGO (AGE formation)” value in assay [2] (extracts and fractions) was determined as 67.51 ± 5.27 µg/mL (≈ 911 µM).
Molecule `O=C(/C=C/c1ccc(O)c(O)c1)O[C@@H]1C[C@](O)(C(=O)O)C[C@@H](O)[C@H]1O` [Compound 10, chlorogenic acid] came in with an IC50 in assay [2] of 138 ± 1.91 µM.
Take `O=c1cc(-c2ccc(O)c(O)c2)oc2cc(OC3OC(CO)C(O)C(O)C3O)cc(O)c12` (stereo not drawn) [Compound 2, luteolin-7-glucoside]: the IC50 in assay [1] (setting [4]) was 123 ± 2.02 µM; in assay [2], 108 ± 8.14 µM; in assay [3] it was 1.46 ± 0.162 mM.
As for `O=c1cc(-c2ccc(OC3OC(CO)C(O)C(O)C3O)c(O)c2)oc2cc(O)cc(O)c12` (stereo not drawn) [Compound 3, luteolin-4′-glucoside], the IC50 amounted to 423 ± 18 µM in assay [1] (compound 3, unit as printed in running text b17, read-out: IC50 AGE formation in BSA-glucose system); 423 ± 18 µM in assay [1] (setting [4]); 90.8 ± 21.7 µM in assay [2]; 0.598 ± 0.147 mM in assay [3] (setting [5]).
With chicoric acid [Compound 11], the IC50 in assay [1] (setting [4]) was determined as 64.7 ± 16.7 µM; in assay [2] it was 141 ± 8.76 µM.
For the molecule `CC1OC(OCC2OC(Oc3cc(O)c4c(=O)cc(-c5ccc(O)c(O)c5)oc4c3)C(O)C(O)C2O)C(O)C(O)C1O` (stereo not drawn) [Compound 4, luteolin-7-rutinoside], the IC50 in assay [1] (setting [4]) is 253 µM; in assay [2], 136 ± 2.64 µM; in assay [3] (setting [5]) it was 0.671 ± 0.0508 mM.
On to `O=c1cc(-c2cc(O)c(O)cc2OC2OCC(O)C(O)C2O)oc2cc(OC3OC(CO)C(O)C(O)C3O)cc(O)c12` (stereo not drawn) [Compound 5, isoetin-7-glucoside-2′-xyloside], for which the IC50 in assay [1] (setting [4]) amounted to 268 ± 3.41 µM; in assay [2] it was 130 ± 28.3 µM. Besides, the “IC50 α-Glucosidase” value in assay [3] (setting [6]) is “no inhibitory activity”.
Regarding `O=c1cc(-c2ccc(O)c(O)c2)oc2cc(O)cc(O)c12` [Compound 1, luteolin], the IC50 is 236 ± 9.11 µM in assay [1] (setting [4]) and 66.1 ± 17.1 µM in assay [2]. In assay [3] (setting [6]), the “IC50 α-Glucosidase” value is reported as “no inhibitory activity”.
Regarding `O=c1cc(-c2cc(O)c(O)cc2OC2OCC(O)C(O)C2O)oc2cc(OC3OC(CO)C(O)C(O)C3O)cc(O)c12` (stereo not drawn) [Compound 6, isoetin-7-glucoside-2′-arabinoside], the IC50 amounted to 238 ± 13.8 µM in assay [1] (setting [4]) and 148 ± 36.3 µM in assay [2]. Besides, the “IC50 α-Glucosidase” value in assay [3] (setting [6]) is listed as “no inhibitory activity”.
Turning to 1-caffeoylglycerol [Compound 8], the IC50 in assay [1] (setting [4]) came to 307 ± 10.2 µM; in assay [2], 152 ± 65.4 µM; in assay [3] (setting [7]), 2.951 ± 0.00394 mM; in assay [3] (setting [5]) it was 2.951 ± 0.00394 mM.
As to `O=C(O)/C=C/c1ccc(O)c(O)c1` [Compound 7, caffeic acid], the IC50 was determined as 324 ± 8.29 µM in assay [1] (setting [4]), 79.7 ± 23.4 µM in assay [2] and 5.13 ± 0.804 mM in assay [3] (setting [7]).

These data come from paper PMC6225126, “Inhibitory Effects of Bioassay-Guided Isolation of Anti-Glycation Components from Taraxacum coreanum and Simultaneous Quantification” (Molecules : A Journal of Synthetic Chemistry and Natural …, 2018).
